In patent US7285547B2, “Amidinophenylalanine derivatives as thrombin inhibitors” (LEK Pharmaceuticals d.d., priority 2000, dated 2007):

Tests used:
trypsin / thrombin = assay: Selectivity to thrombin (ratio of Ki for trypsin to Ki for thrombin); type: biochemical
Protocol: 3. Selectivity to Thrombin
By the use of other serine protease like trypsin with the appropriate chromogenic substrate, selectivity of inhibitors with respect to thrombin was determined. Selectivity of an inhibitor is expressed as a ratio of Ki for trypsin to Ki for thrombin.

trypsin = biological target: T1, trypsin (UniProt P00760); assay: Determination of trypsin Ki (chromogenic substrate S-2222); type: biochemical; conditions: S-2222, 25° C.
T1 construct: Trypsin (6000 E/mg prot; Sigma): dissolved in distilled water to give a stock solution of 300 E/mL
T1 sequence (P00760 1-246): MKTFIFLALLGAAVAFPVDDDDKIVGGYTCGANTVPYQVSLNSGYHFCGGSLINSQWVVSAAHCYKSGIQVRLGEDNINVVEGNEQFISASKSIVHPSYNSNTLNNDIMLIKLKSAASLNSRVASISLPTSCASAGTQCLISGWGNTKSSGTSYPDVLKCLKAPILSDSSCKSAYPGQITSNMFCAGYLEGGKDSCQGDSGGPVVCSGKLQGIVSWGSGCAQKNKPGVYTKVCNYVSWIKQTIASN
Protocol: (§1) The enzyme inhibitory effect of the compounds can be identified by determination of inhibition constant Ki. It denotes the degree of dissociation of the enzyme-inhibitor complex. Low dissociation constant means high potency of inhibitor. Ki can be determined during reaction of the enzyme with a specific chromogenic substrate which under hydrolysis by the enzyme develops color. Reaction in time is recorded by spectrophotometry and Ki is calculated from kinetic parameters (Vmax, Km, reaction rate).
2. Determination of Trypsin Ki
The ability of a compound to act as an inhibitor of trypsin catalytic activity was assessed by determination of Ki.
50 μL of buffer, 50 μL of test compound in water (final concentrations from 50 to 300 μM) and 50 μL of trypsin (3 mE/mL f.c.) were incubated for 15 minutes at room temperature.
(§2) Trypsin activity was determined from the change in absorbance in the linear part of velocity graph. […] The Km for the substrate was determined under test conditions with at least 6 substrate concentrations varying around Km and calculated with the non-linear regression program Curve expert.

human thrombin = biological target: T2, human thrombin (Homo sapiens, UniProt P00734); assay: Determination of thrombin Ki (chromogenic substrate S-2238); type: biochemical
T2 construct: Human thrombin (308 NIH; Sigma); purchased Sigma
Protocol: as §1
1. Determination of Thrombin Ki
The ability of a compound to act as an inhibitor of human thrombin catalytic activity was assessed by determination of Ki.
A mixture of 50 μL of buffer, 50 μL of inhibitor in water (final concentrations from 10 to 100 μM) and 50 μL of thrombin (0.5 NIH U/mL f.c.) was incubated for 15 minutes at room temperature.
as §2, with “Thrombin” for “Trypsin”, “of the” for “of”, “under the” for “under”, “programme” for “program”

[1] = test system: thrombus formation in a venous thrombosis model in the rat; assay: Stasis-induced thrombosis (venous thrombosis model); type: in vivo; conditions: iv, i.v. 5 min before thrombosis induction, tissue factor plus stasis, read-out: Stasis-induced thrombosis (ED50 ± SD)
Protocol: 1. Stasis-Induced Thrombosis
Using a combination of thrombogenic challenge (0.045 ng/kg of tissue factor) and stasis, compounds were tested for their abillity to affect thrombus formation in a venous thrombosis model in the rat.
Thrombus formation by a combination of stasis and hypercoagulability was induced as described by Vogel et al. (Thromb. Res., 1989, 54, 399410). Male sprague-Dawley rats (250-300 g) were anaesthetized with sodium pentobarbitone (30 mg/kg, i.p.). The abdomen of the animals was surgically opened and after careful dissection, the vena cava was exposed and dissected free from surrounding tissue. Saline, or the various compounds were administered i.v. 5 min before thrombosis induction. […] Human tissue factor (0.045 ng/kg, i.v.) was injected into the dorsal vein of the penis. Ten seconds after the end of the injection, stasis were established by tightening the […] the proximal and then the distal. The abdominal cavity was provisionally closed and stasis was maintained for 20 minutes. The cavity was then reopened, the ligated segment was opened longitudinally and the thrombus formed was removed, rinsed, blotted on filter paper, dried overnight at 60° C. and weighed. Under these experimental conditions, control thrombus weight was 5.5±0.1 mg (n=15).

[2] = test system: transection of the tail of rats; assay: Bleeding time (transection of the tail); type: in vivo; conditions: rat tail transection, 1 mg/kg i.v. 5 min before transection
Protocol: The hemorrhagic risk associated to a treatment with selected compounds were determined using an experimental model of bleeding: transection of the tail of rats.
Bleeding time was determined by transection of the tail, 2 mm from the tip, of […] rats (30 mg/kg i.p.). The compounds were injected i.v. at the indicated doses 5 min before tail transection. Blood was carefully blotted every 15 s on a filter paper. Haemostasis was considered to be achieved when no more blood stain was observed over 1 min.

[3] = test system: normal pooled human plasma; assay: Thrombin time (TT) coagulation assay; type: biochemical; conditions: concentration of inhibitor that doubled the clotting time
Protocol: (§3) The Anticoagulant effect of thrombin inhibitors was measured by thrombin time (TT), activated partial thromboplastin time (aPTT), and prothrombin time (PT) assays. Inhibitors were added to normal pooled human plasma over a range of concentrations and clotting was recorded in an automated coagulometer (Fibrintimer, Dade/Behring). The concentration of inhibitor that doubled the clotting time was determined for each assay.
In a plasma sample thrombin converts fibrinogen into fibrin and the clot is formed. The time for clot formation was measured. Thrombin time is prolonged due to disorders in fibrin polymerisation or due to the presence of thrombin inhibitors.
b) Reagents • Thrombin (Test Thrombin Reagent, 1.5 IU/mL, Dade/Behring): lyophilized bovine thrombin was dissolved in 5 mL of HEPES (25 mmol/L, pH 7.4). The reagent was warmed to 37° C. prior to the assay. • Normal pooled plasma: venous blood from 11 apparently healthy volunteers was collected (1 part 0.11 mol/L sodium citrate solution with 9 parts of blood) and centrifuged immediately at 2000×g for 30 minutes at 4° C. […]
Inhibitors (10 μL working solution, concentrations from 2.5 μM to 100 μM) and pooled plasma (90 μL) were incubated at 37° C. for 5 minutes and then thrombin (200 μL) was added. Clot formation was measured in a coagulometer in duplicate.

[4] = test system: normal pooled human plasma; assay: Activated partial thromboplastin time (aPTT) coagulation assay; type: biochemical; conditions: concentration of inhibitor that doubled the clotting time
Protocol: as §3
2. Activated Partial Thromboplastin Time (aPTT)
Incubation of plasma with the optimal quantity of phospholipids and a surface activator leads to activation of factors of the intrinsic coagulation pathway. The addition of calcium ions triggers the coagulation process. The time of fibrin clot formation wass measured. aPTT was used as a screening test for coagulation disorders of the intrinsic coagulation pathway. It is prolonged due to intrinsic coagulation factors deficit or due to the presence of inhibitors.
b) Reagents • Pathromtin SL (Dade/Behring): silicon dioxide particles, vegetable phospholipids, sodium chloride (2.4 g/L), Hepes (14.3 g/L, pH 7.6), sodium azide (<1 g/L). […]
Inhibitor (10 μL working solution, concentrations from 5 μM to 100 μM) and pooled plasma (90 μL) were incubated at 37° C. for 5 minutes. […] The addition of calcium chloride (100 μL) triggered the coagulation process and clot formation was detected with a coagulometer in duplicate.

[5] = test system: normal pooled human plasma; assay: Prothrombin time (PT) coagulation assay; type: biochemical; conditions: concentration of inhibitor that doubled the clotting time
Protocol: as §3
An optimal amount of thromboplastin and calcium are added to plasma sample and the time of fibrin clot formation wass measured. PT is a rapid, sensitive screening test for coagulation disorders of the extrinsic pathway. It is well suited for the induction and monitoring of oral anticoagulant therapy, for diagnosing genetic or acquired deficiencies in coagulation factors and checking the synthesis performance of the liver in hepatic diseases. PT is prolonged due to extrinsic coagulation factors deficit or due to the presence of inhibitors.
b) Reagents • Thromboplastin (Thromborel S, Dade/Behring): was dissolved in 4 mL of distilled water. […]
Inhibitor (10 μL working solution, concentrations from 5 μM to 100 μM) and pooled plasma (90 μL) were incubated at 37° C. for 5 minutes and then Thromborel S (200 μL) was added. Clot formation was measured with a coagulometer in duplicate.

[6] = text comparison of SI 20025 compound with compound of the present invention

Compound | Ki (trypsin) [nM] | Ki (human thrombin; human thrombin, S-2238, 25° C.) [nM] | melting point [°C] | other results
CC1CCN(C(=O)N(Cc2cccc(C(=N)NO)c2)NS(=O)(=O)c2ccc3ccccc3c2)CC1 | > 68300 | 469 |  | Ki trypsin/Ki thrombin (trypsin / thrombin): 146
N=C(N)Cc1ccc(CN(NS(=O)(=O)c2ccc3ccccc3c2)C(=O)N2CCCCCC2)cc1 [compound b] |  |  |  | Ki (human thrombin; [6]): 5 nM
COc1ccc2cc(S(=O)(=O)NN(Cc3cccc(C(=N)NO)c3)C(=O)N3CCCCCC3)ccc2c1 | 17900 |  |  | Ki trypsin/Ki thrombin (trypsin / thrombin): 29
COc1ccc2cc(S(=O)(=O)NN(Cc3cccc(C(=N)N)c3)C(=O)N3CCCCCC3)ccc2c1.Cl |  |  | 151 to 154 | 
COc1ccc2cc(S(=O)(=O)NN(Cc3cccc(/C(N)=N/O)c3)C(=O)N3CCC(C)CC3)ccc2c1 [Example 17, N′-Hydroxy-3-({2-[(6-methoxy-2-naphthyl)sulfonyl]-1-[(4-methyl-1-piperidinyl)carbonyl]hydrazino}methyl)benzenecarboximidamide] |  |  | 154 to 156 | 
COc1ccc2cc(S(=O)(=O)NN(Cc3cccc(/C(N)=N/O)c3)C(=O)N3CCCCCC3)ccc2c1 [Example 23, 3-({1-(1-Azepanylcarbonyl)-2-[(6-methoxy-2-naphthyl)sulfonyl]hydrazino}methyl)-N′-hydroxybenzenecarboximidamide] |  |  | 173 to 175 | 
Cl.N=C(N)c1cccc(CN(NS(=O)(=O)c2ccc3ccccc3c2)C(=O)N2CCCCCC2)c1 |  |  | 151 to 154 | 
COc1ccc2cc(S(=O)(=O)NN(Cc3cccc(C(=N)N)c3)C(=O)N3CCCCCC3)ccc2c1 | 53 | 9 |  | Ki trypsin/Ki thrombin (trypsin / thrombin): 5.84
COc1ccc2cc(S(=O)(=O)NN(Cc3cccc(C(=N)N)c3)C(=O)N3CCC(C)CC3)ccc2c1.Cl |  |  | 151 to 154 | 
N/C(=N\O)c1cccc(CN(NS(=O)(=O)c2ccc3ccccc3c2)C(=O)N2CCCCCC2)c1 [drawing 45] | 32200 | 594 |  | Ki trypsin/Ki thrombin (trypsin / thrombin): 54
CC1CCCCN1C(=O)N(Cc1cccc(/C(N)=N/O)c1)NS(=O)(=O)c1ccc2ccccc2c1 (stereo not shown) [Example 13, N′-hydroxy-3-{[1-[(2-methyl-1-piperidinyl)carbonyl]-2-(2-naphthylsulfonyl)hydrazino]methyl}benzenecarboximidamide] |  |  | 101 to 103 | 
N=C(N)c1cccc(CN(NS(=O)(=O)c2ccc3ccccc3c2)C(=O)N2CCCCCC2)c1 [drawing 50] |  |  |  | ED50 [1]: 0.07 ± 0.005 mg/kg
N=C(N)c1cccc(CN(NS(=O)(=O)c2ccc3ccccc3c2)C(=O)N2CCCCCC2)c1 [drawing 46] | 143 | 5 |  | 
COc1ccc2cc(S(=O)(=O)NN(Cc3cccc(/C(N)=N/O)c3)C(=O)N3CCCCC3C)ccc2c1 (stereo not shown) [Example 15, N′-Hydroxy-3-({2-[(6-methoxy-2-naphthyl)sulfonyl]-1-[(2-methyl-1-piperidinyl)carbonyl]hydrazino}methyl)benzenecarboximidamide] |  |  | 172 to 175 | 
CC1CCN(C(=O)N(Cc2cccc(C(=N)N)c2)NS(=O)(=O)c2ccc3ccccc3c2)CC1 | 112 | 4 |  | 
N/C(=N\O)c1cccc(CN(NS(=O)(=O)c2ccc3ccccc3c2)C(=O)N2CCCCCC2)c1 [drawing 49] |  |  |  | ED50 [1]: 0.29 ± 0.011 mg/kg; Bleeding (fold increase at 1 mg/kg) [2]: 3.3 fold increase
COc1ccc2cc(S(=O)(=O)NN(Cc3cccc(C(=N)N)c3)C(=O)N3CCC(C)CC3)ccc2c1 |  | 11 |  | TT [3]: 2.0 µM; aPTT [4]: 2.1 µM; PT [5]: 2.7 µM
N=C(N)c1ccc(CN(NS(=O)(=O)c2ccc3ccccc3c2)C(=O)N2CCCCCC2)cc1 [compound a, reference compound] |  |  |  | Ki (human thrombin; [6]): 32 nM
